In patent US7432045B2 (priority 2003, dated 2008):
Like-named read-outs stand apart in the source and are kept apart here. Peptide text beside a SMILES is read from it. * marks the point of attachment. Biotin = O=C1N[C@H]2[C@H](CS[C@H]2CCCCC(=O)*)N1; Ahx = NCCCCCC(=O)O

What was measured:
[1] = tested on: HSV-1 KOS; test: Plaque reduction assay; assay type: cell-based; settings: presence of serum
Description: Cell culture and virus: The procedures for growing Vero cells and preparing high titer stocks of HSV-1 KOS as described in Grau et al., Invest. Ophthal. and Vis. Sci. 30: 2474 (1989) were utilized. Vero cells were maintained in carbonate-buffered DMEM supplemented with 5% calf serum and 5% fetal bovine serum (regular medium). For some studies, cells were switched to serum-free DMEM buffered with 25 mM HEPES (pH 7.4) and allowed to adapt to that medium for 30 min prior to experimental treatments. Vero cells were seeded into wells (0.28 cm^2) of microtiter plates either at 3.5×10^4 cells/well for use 1 day later (8×10^4 cells/well) or at 1×10^4 cells/well for use 3 days later (2×10^5 cells/well).
Plaque reduction assay: Confluent Vero cell cultures in microtiter plates were infected for 1 hour at 37° C. in 40 μL of medium. Except where indicated, peptide treatments in 40 μL of medium lasted from 1 hour before through 1 hour after infection. At the end of the adsorption period, the cultures were re-fed with 100 μL of regular medium. Plaque formation was scored 2 days later and the number of plaques scored per well was normalized to the number counted in the absence of peptide. Using an ocular micrometer, plaque size (π/2×L×S) was determined by measuring the largest plaque diameter (L) and the diameter at a 90° angle to that (S). The size of each of the first 40 scored plaques was measured except when a plaque included less than 10 rounded cells or touched the side of the well.

[2] = tested on: HSV-1 KOS mutant hrR3; settings: read-out: inhibition of hrR3 infection IC50; serum-free conditions
[3] = tested on: HSV-1 KOS mutant hrR3; test: LacZ+ virus (hrR3) entry assay with pre-adsorbed virus (entry block); assay type: cell-based
Description: LacZ^+ virus (hrR3) entry assay: Confluent Vero cell cultures in 96-well microtiter plates were switched to Hepes-buffered serum-free DMEM, cooled on ice to 4° C. for 30 min, and infected with hrR3 for 1 hour at 4° C. in 40 μL of medium. Unattached virus was removed by rinsing with ice-cold medium. Treatments with antiviral peptide SEQ ID NO:1, referred to as EB, or a control peptide which comprised the RRKK tetra-peptide (SEQ ID NO:16) attached to a scrambled version of the membrane transiting peptide RRKKLAALPLVLAAPLAVLA (SEQ ID NO:17) (referred to as EBX), or mock-treatments with peptide-free medium were carried out in serum-free DMEM as indicated. Virus entry was initiated by transferring cultures to 37° C. To inactivate any remaining extracellular virus, cultures were rinsed with PBS and exposed to low pH citrate buffer (40 mM citric acid, 10 mM KCl, 135 mM NaCl, pH 3.0, according to Highlander et al., J. Virol. 61:3356 (1987), for 1 min at 23° C. The citrate was rinsed off with PBS and cultures were maintained in serum-supplemented DMEM until they were fixed with 0.5% gluteraldehyde in 5×PBS for 30 min at 23° C., stained for β-galactosidase activity for 1 hour or overnight at 23° C. with X-gal (Fisher Biotech; BP1615-1) in 1×PBS containing […], 1.3 mM K4Fe(CN)6, and 1.3 mM K3Fe(CN)6, and scored for the presence of blue […] cells.
In these studies, the hrR3 virus was pre-adsorbed to cells for 1 hour at 4° C. before ice cold 25 μM EB or EBX were added in serum-free DMEM. After an additional 1 hour at 4° C., cultures were shifted to 37° C. to initiate virus entry. At 15 min intervals following the temperature shift, any virus remaining outside the cells was inactivated by washing the cultures with low pH citrate buffer. Cultures were then rinsed and returned to peptide-free serum-supplemented DMEM until they were fixed and stained for β-galactosidase 8 hours after the temperature shift.
(§1) Two assays were used to assess the ability of the TAT peptides to inhibit infection of Vero cells with the hrR3 virus. In both assays, the virus was preadsorbed to cells at 4° C. and entry was initiated in the presence of peptide by shifting the cultures to a permissive temperature (30-37° C.). One hour later, the peptide was rinsed off. The entry blocking activity was measured in half of the cultures, in which any extracellular virus remaining after the peptide treatment was inactivated with low pH citrate buffer. The rest of the cultures were exposed to PBS instead of citrate buffer and used to measure virus inactivation. Virus inactivation depended on persistent effects of the peptide lasting for a period of eight hours. At the end of that period, all cultures were fixed and infected cells were detected by staining with X-gal.
(§2) Virus (m.o.i.=0.025) was preadsorbed to Vero cells for 1 h at 4° C. before cultures were exposed to TAT-C (FIG. 15A), bTAT-9X (FIG. 15B), or n50,51TAT-C (FIGS. 15C, 15D) for 1 h at 33 (FIGS. 15A, 15B), 31 (FIG. 15C), or 37° C. (FIG. 15D). […] Inhibition of entry was measured in the citrate-treated cultures, in which any remaining external virus was inactivated immediately following exposure to peptide (●). Persistent virus inactivation lasting, at least in part, for the 8 h period following exposure to peptide, was measured in the PBS-treated cultures (◯). The IC50s measured in these experiments are included in Table 5.

[4] = tested on: HSV-1 KOS mutant hrR3; test: Inactivation of pre-adsorbed virus (virus inactivation); assay type: cell-based
Description: as §1, §2

[5] = tested on: hrR3; test: Virucidal assay; assay type: cell-based, HSV-1
Description: […] The treated virus was diluted 200-fold with serum-supplemented DMEM and assayed for infectivity approximately 1 hour later in microtiter wells seeded with Vero cells (3.5×10^4 cells/well) 1 d earlier. Forty or 100 microliter volumes of diluted virus were adsorbed for 1 or 2 h at 37° C. and lacZ^+ cells were scored 8 hours later. In some experiments, aliquots of diluted virus were first dialyzed (Spectra/Por; MWCO 12-14,000) overnight at 4° C. against a 60-fold excess volume of Hepes-buffered serum-supplemented DMEM or forced by syringe through 0.22 μm membranes (Millex-GV; Millipore) before the remaining infectious virus was assayed.

[6] = tested on: hrR3 virions; test: Inactivation of virions in solution; assay type: cell-based, HSV-1; settings: 37° C.; read-out: Inactivation of Virions 37° C. IC50
Description: Inactivation of virions: To assess the ability of peptides to inactivate virions, 3-4×10^6 pfu/mL of virus was mixed on ice with peptide in serum-free DMEM and incubated for 1 h at 4 or 37° C. Aliquots (10 μL) were diluted 1000-fold into peptide-free serum-supplemented DMEM at 23° C. and 50 μL aliquots were assayed in triplicate for infectivity in Vero cell cultures (dilution assay). Alternatively, 10 μL aliquots were diluted into 1 mL of ice-cold peptide-free serum-supplemented DMEM and the virus was pelleted as described above (centrifugation assay). Viral pellets were then resuspended in 250 μL serum-supplemented DMEM and 50 μL aliquots were assayed in triplicate for infectivity in Vero cell cultures.
Some of the virus diluted without the addition of NaCl was pelleted immediately (Control), while the rest of the diluted virus was stored at 4° C. and pelleted 19 h later. The virus was pelleted and assayed for infectivity as described in Example 1.

[7] = in vitro; settings: African green monkey
[8] = tested on: HSV-1 KOS mutant hrR3; settings: read-out: post-entry effects IC50; peptide added after citrate treatment, 8 h
[9] = 33° C., read-out: Entry Block IC50
[10] = 33° C., read-out: Virus Inactivation IC50 (pre-adsorbed virus)

SMILES: N=C(N)NCCC[C@H](NC(=O)[C@@H](N)CCCNC(=N)N)C(=O)N[C@@H](CCCCN)C(=O)N[C@@H](CCCCN)C(=O)O [R-R-K-K tetramer, R-R-K-K, reference compound] (H-RRKK-OH; N-terminus and C-terminus assumed)
- concentration with no antiviral activity [1]: > 200 µM
- IC50 [2]: 1300 µM

SMILES: CC(C)C[C@H](NC(=O)CNC(=O)[C@H](CC(N)=O)NC(=O)[C@H](C)NC(=O)[C@H](Cc1ccc(O)cc1)NC(=O)[C@@H](NC(=O)[C@H](CC(=O)O)NC(=O)CNC(=O)[C@@H]1CCCN1C(=O)[C@H](CCCNC(=N)N)NC(=O)[C@H](CCCNC(=N)N)NC(=O)[C@H](CCCNC(=N)N)NC(=O)[C@H](CCC(N)=O)NC(=O)[C@H](CCCNC(=N)N)NC(=O)[C@H](CCCNC(=N)N)NC(=O)[C@H](CCCCN)NC(=O)[C@H](CCCCN)NC(=O)[C@H](CCCNC(=N)N)NC(=O)CNC(=O)[C@H](Cc1ccc(O)cc1)NC(=O)CCCCCNC(=O)CCCC[C@@H]1SC[C@@H]2NC(=O)N[C@@H]21)C(C)C)C(=O)N[C@H](C(=O)N[C@@H](C)C(=O)O)C(C)C [bTAT-9X, b - YGRKKRRQRRR-9x] ({Biotin-Ahx}-YGRKKRRQRRRPGDVYANGLVA-OH)
- extent of inhibition of entry ([3]; 33° C.): ~90%
- IC50 ([3]; 33° C., read-out: Entry Block 33° C. IC50): 2 µM
- IC50 [3, 9]: 2 µM
- IC50 ([3]; 33° C., read-out: inhibition of entry IC50): 2 µM
- IC50 ([3]; 37° C., read-out: Entry Block 37° C. IC50): 8.7 µM
- IC50 ([3]; read-out: Entry Blocking Activity IC50): 67 µM
- IC50 ([4]; 33° C., read-out: Inactivation of Pre-Adsorbed Virus 33° C. IC50): 200 µM
- IC50 [4, 10]: 200 µM
- IC50 ([4]; 33° C., read-out: virus inactivation IC50): 200 µM
- IC50 ([4]; 37° C., read-out: Inactivation of Pre-Adsorbed Virus 37° C. IC50): 63 µM
- Virucidal Activity 4° C. IC50 ([5]; 4° C.): None
- Virucidal Activity 37° C. IC50 ([5]; 37° C.): None
- IC50 [6]: > 1200 µM

SMILES: CC(C)C[C@H](NC(=O)CCCCCNC(=O)CCCC[C@@H]1SC[C@@H]2NC(=O)N[C@@H]21)C(=O)N[C@H](C(=O)N[C@@H](CC(C)C)C(=O)N[C@@H](C)C(=O)N[C@@H](C)C(=O)N1CCC[C@H]1C(=O)N[C@@H](CC(C)C)C(=O)N[C@@H](C)C(=O)N[C@H](C(=O)N[C@@H](CC(C)C)C(=O)N[C@@H](C)C(=O)N1CCC[C@H]1C(=O)NCC(=O)N[C@@H](CCCNC(=N)N)C(=O)N[C@@H](CCCCN)C(=O)N[C@@H](CCCCN)C(=O)N[C@@H](CCCNC(=N)N)C(=O)N[C@@H](CCCNC(=N)N)C(=O)N[C@@H](CCC(N)=O)C(=O)N[C@@H](CCCNC(=N)N)C(=O)N[C@@H](CCCNC(=N)N)C(=O)N[C@@H](CCCNC(=N)N)C(=O)N[C@@H](CS)C(N)=O)C(C)C)C(C)C [b12TAT-C] ({Biotin-Ahx}-LVLAAPLAVLAPGRKKRRQRRRC-NH2)
- IC50 [3, 9]: 3.3 µM
- IC50 [4, 10]: 11 µM
- IC50 [7]: ~200 µM
- IC50 [8]: 100 µM

SMILES: CC(C)C[C@H](NC(=O)[C@H](CC(=O)O)NC(=O)[C@H](CC(N)=O)NC(=O)[C@@H](NC(=O)[C@@H](NC(=O)[C@H](C)NC(=O)CNC(=O)[C@H](C)NC(=O)[C@H](Cc1ccc(O)cc1)NC(=O)CNC(=O)[C@@H]1CCCN1C(=O)[C@H](CCCNC(=N)N)NC(=O)[C@H](CCCNC(=N)N)NC(=O)[C@H](CCCNC(=N)N)NC(=O)[C@H](CCC(N)=O)NC(=O)[C@H](CCCNC(=N)N)NC(=O)[C@H](CCCNC(=N)N)NC(=O)[C@H](CCCCN)NC(=O)[C@H](CCCCN)NC(=O)[C@H](CCCNC(=N)N)NC(=O)CNC(=O)[C@H](Cc1ccc(O)cc1)NC(=O)CCCCCNC(=O)CCCC[C@@H]1SC[C@@H]2NC(=O)N[C@@H]21)C(C)C)C(C)C)C(=O)O [bTAT-9, b - YGRKKRRQRRR-9] ({Biotin-Ahx}-YGRKKRRQRRRPGYAGAVVNDL-OH)
- IC50 [3, 9]: 2.1 µM
- IC50 [4, 10]: 110 µM
- IC50 [7]: ~200 µM
- IC50 [8]: 210 µM
